Literature values in patent publication US20230047788A1, “COMPOSITIONS COMPRISING 5-CHOLESTEN-3, 25-DIOL, 3-SULFATE (25HC3S) OR PHARMACEUTICALLY ACCEPTABLE SALT THEREOF AND AT LEAST ONE CYCLIC OLIGOSACCHARIDE” (Virginia Commonwealth University, priority 2016, published 2023).

Conditions: at 25°C; cited from earlier work

CC(O)COC[C@H]1O[C@@H]2O[C@H]3[C@H](O)[C@@H](O)[C@@H](O[C@H]4[C@H](O)[C@@H](O)[C@@H](O[C@H]5[C@H](O)[C@@H](O)[C@@H](O[C@H]6[C@H](O)[C@@H](O)[C@@H](O[C@H]7[C@H](O)[C@@H](O)[C@@H](O[C@H]8[C@H](O)[C@@H](O)[C@@H](O[C@H]1[C@H](O)[C@H]2O)O[C@@H]8COCC(C)O)O[C@@H]7COCC(C)O)O[C@@H]6COCC(C)O)O[C@@H]5COCC(C)O)O[C@@H]4COCC(C)O)O[C@@H]3COCC(C)O (stereo partly drawn) [HP-β-CD, hydroxypropyl β-cyclodextrin]
solubility in water: 50 % w/v
